In publication PMC11187217, “Anti-adhesive, anti-biofilm and fungicidal action of newly synthesized gemini quaternary ammonium salts” (Scientific Reports, 2024):

Legend:
[1] = test system: C. albicans ATCC 10231; experiment: Adhesion of C. albicans to stainless steel surface; format: cell-based, Candida albicans; details: concentration not stated (tested 80–640 µM)
Description: (§1) The effect of gemini QAS on the adhesion of C. albicans ATCC 10231 was determined using a modification of the method of Obłąk et al.. […] After incubation, the culture was centrifuged (1000 rcf, 5 min), and the resulting pellet was suspended in PBS (pH 7.4) until OD = 0.8 (λ = 590 nm). • In the case of testing the polystyrene surface, 100 µl of tested gemini QAS at concentrations of 20–1280 µM was added to the wells of a 96-well titration plate, incubated for 2 h at 37 °C, rinsed with sterile distilled water, and then spotted with 100 µl of the obtained culture and incubated at 37 °C for 4 h. After this time, the culture was removed, the plates were rinsed with sterile distilled water and placed in an oven (60 °C, 20 min). Then, crystal violet (0.1%) was added to the wells of the titration plate, stained for 5 min and rinsed with sterile distilled water until all traces of violet were removed from the rinsed water. Then the washing mixture (1% SDS, 50 mmol HCl, 100% isopropanol) was added. The absorbance of the samples was read using a spectrophotometer (BioTek 800 TS Absorbance Reader) at λ = 590 nm. The positive control was the culture wells to which the tested gemini QAS were not added, and the negative control was the medium. The experiment was performed in 3 repetitions. • When the tested surface was stainless steel (round washers Ø 0.4 cm), silicone (0.5 cm long fragments of Foley catheters) or glass (1 cm^2 coverslips), the tested materials were incubated for 2 h at 37 °C with shaking (100 rpm) in the presence of the tested gemini QAS at concentrations of 80–640 µM. Then, the materials were rinsed with sterile distilled water, transferred to tubes with culture and incubated for 4 h at 37 °C with shaking (100 rpm). After incubation, the materials were rinsed with sterile distilled water. […] Next, the washing mixture (1% SDS, 50 mmol HCl, 100% isopropanol) was added and the absorbance of the samples was read using a spectrophotometer (BioTek 800 TS Absorbance Reader) at λ = 590 nm. […] After this time, the colonies growing on the plates were counted. […]

[2] = test system: C. albicans ATCC 10231 biofilm; experiment: Biofilm viability (LIVE/DEAD, confocal microscopy); format: cell-based, Candida albicans; details: glass surface, SYTO 9 / propidium iodide
Description: The viability of the biofilm formed by C. albicans ATCC 10231 cells was determined using the Filmtracer LIVE/DEAD Biofilm Viability Kit (Invitrogen).
The C. albicans culture was incubated in YPG medium at 37 °C for 18 h. After incubation, the culture was centrifuged (1000 rcf, 5 min), and the resulting pellet was suspended in PBS (pH 7.4) to obtain an OD = 1.5 (λ = 590 nm). 100 µl of C. albicans cell suspension was placed into the wells of the chamber slide plate and incubated for 24 h at 37 °C. After this time, the culture was removed and the plate was rinsed with sterile mQ water. Then, 200 µl of selected tested surfactants in appropriate concentrations was added to each well and incubated for 4 h. After incubation, the plate was rinsed with PBS, 100 µl of the LIVE/DEAD probe was added, and it was incubated for 30 min in the dark. After this time, the probe was removed and the wells were rinsed twice with PBS. Then, 100 µl of 4% formaldehyde in PBS (pH 7.0) was added and it was incubated for 30 min in the dark. Formaldehyde was removed and the wells were rinsed twice with PBS. After peeling off the walls of the plate, a drop of 50% glycerol in PBS was placed on each field and a glass slide was placed on it. The viability of the biofilm formed by C. albicans cells was imaged using a confocal microscope. The negative control was PBS.

[3] = test system: sheep erythrocytes; experiment: Hemolysis test; format: cell-based; details: 1.5 h, 37 °C; for Concentration up to which no hemolysis was caused: sheep erythrocytes; for Hemolytic effect on sheep erythrocytes: tested 2.5–1280 µM
Description: The hemolysis test was performed based on the Obłąk et al.[80] method with modification. Sheep blood (5 cm^3) was centrifuged (699 rcf, 15 min), washed several times with PBS buffer (pH 7.4), and suspended in PBS. […] The positive control was 1% SDS and the negative control was PBS. The plates were incubated for 1.5 h at 37 °C. After incubation, the plates were centrifuged (699 rcf, 15 min) and the supernatant was applied to a new titration plate. Absorbance was measured at λ = 540 nm (BioTek 800 TS Absorbance Reader). The experiment was performed in 4 repetitions.

[4] = test system: C. albicans ATCC 10231; experiment: Adhesion of C. albicans to glass surface; format: cell-based, Candida albicans; details: 640 µM
Description: as §1, with “nm.” for “nm. The positive control was the culture wells to which the tested gemini QAS were not added, and the negative control was the medium. The experiment was performed in 3 repetitions. • When the tested surface was stainless steel (round washers Ø 0.4 cm), silicone (0.5 cm long fragments of Foley catheters) or glass (1 cm^2 coverslips), the tested materials were incubated for 2 h at 37 °C with shaking (100 rpm) in the presence of the tested gemini QAS at concentrations of 80–640 µM. Then, the materials were rinsed with sterile distilled water, transferred to tubes with culture and incubated for 4 h at 37 °C with shaking (100 rpm). After incubation, the materials were rinsed with sterile distilled water.”

[5] = test system: C. albicans ATCC 10231; experiment: Adhesion of C. albicans to silicone surface; format: cell-based, Candida albicans
Description: as §1

[6] = concentration not stated (tested 80–640 µM)

Row | Structure (SMILES) | Inhibition of adhesion of C. albicans to stainless steel [1] | Impact on survival of C. albicans biofilm (membrane integrity) [2] | Concentration up to which no hemolysis was caused [3] [µM] | Reduction of adhesion of C. albicans cells to glass [4] | Reduction of adhesion of C. albicans cells to silicone ([5]; 640 µM) | Reduction of adhesion of C. albicans cells to silicone [5, 6] | Hemolytic effect on sheep erythrocytes [3] | Hemolytic effect on sheep erythrocytes ([3]; listed as dimethylcarbonate with 12-carbon alkyl chains)
1 | CCCCCCCCCCCCCCCC(=O)N(CCCN(CCC[N+](C)(C)C)C(=O)CCCCCCCCCCCCCCC)CCC[N+](C)(C)C [2xC16BrG3] | approximately 60% | strong impact | ≤ 80 |  |  |  |  | 
2 | CCCCCCCCCCCC(=O)N(CCCN(CCC[N+](C)(C)C)C(=O)CCCCCCCCCCC)CCC[N+](C)(C)C [2xC12BrG3] |  |  | ≤ 20 | approximately 80% |  |  |  | 
3 | CCCCCCCCCCCCCCCC(=O)N(CCCN(CCC[N+](C)(C)C)C(=O)CCCCCCCCCCCCCCC)CCC[N+](C)(C)C [2xC16LaG3] |  |  | ≤ 40 |  | completely reduced the adhesion |  |  | 
4 | CCCCCCCCCCCCCCCC(=O)N(CCCN(CCC[N+](C)(C)C)C(=O)CCCCCCCCCCCCCCC)CCC[N+](C)(C)C [2xC16MeCO3G3, dimethyl{{3-[N-(3-{N-[3-(dimethylammonium)propyl]hexadecylamido}propyl}hexadecylamido}propyl}}ammonium dimethylcarbonate] | approximately 50% |  | ≤ 80 |  |  | 80–90% |  | 
5 | CCCCCCCCCCCC(=O)N(CCCN(CCC[N+](C)(C)C)C(=O)CCCCCCCCCCC)CCC[N+](C)(C)C [2xC12MeCO3G3, dimethyl{{3-[N-(3-{N-[3-(dimethylammonium)propyl]dodecylamido}propyl}dodecylamido}propyl}}ammonium dimethylcarbonate] | approximately 60% |  |  |  |  | 80–90% | did not cause hemolysis | no hemolytic effect
